# “And” between values parts separate entries of the source, which are not always exact repeats. Equal values may be shown once. Where a name gives a salt, the structure may show the parent alone.
# Key:
# ICR mice [1] = assay: Phenylquinone-induced writhing assay in mice (Example 18); type: in vivo; conditions: IP; for Number of Writhings Individual: individual mice
# Experimental: Testing on compounds KRS-6-26 and JFY-058 was also carried out under contract by MDS Services—Taiwan Ltd. The study was designed to evaluate the effects of the compounds as analgesics in the phenylquinone-induced writhing assay described in detail in Example 13(Siegmund et al, 1957).
# (§1) In each case, a serial 2-fold dosage variance was used in the test, from 128 mg/kg to 1 mg/kg (8 doses in total). Groups of 3 male or female ICR mice weighing 22±2 g were employed. A serial 2-fold dosage variance was used in the test (8 doses in total). Variant doses (1, 2, 4, 8, 16, 32, 64 and 128 mg/kg) of test substances were administered intraperitoneally (IP). A vehicle of 2% Tween 80 in 0.9% NaCl was used for the intraperitoneal injection. The control group received vehicle alone. […] A reduction in the number of writhes by 50 percent or more (≧50%) relative to the vehicle-treated group indicated possible analgesic activity.
# ICR mice [2] = assay: Straub tail behaviour (indicator of CNS activity) and observed signs in test animals
# Description: The Straub test is an indicator of CNS activity.
# The tail-flick test is thought to involve central nervous system activity, and therefore provides further confirmation of the Straub tail test.
# human δ-opiate receptor = molecular target: T1, human δ-opiate receptor (Homo sapiens, UniProt P41143); assay: In vitro opiate receptor radioligand binding assay, δ; conditions: test compound 10 μM; read-out: Percentage inhibition of radioligand binding, δ-opiate receptor
# T1 construct: purchased MDS Pharma Services 260110
# Experimental: (§2) To characterise the target specificity of the compounds, KRS-5-150 and KRS-6-26 were tested at a concentration of 10 μM for their ability to inhibit the binding of a radioligand to human δ-, κ-, or μ-opiate receptors in vitro using commercially available assays (MDS Pharma Services; assay catalogue numbers 260110, 260210 and 260410 respectively).
# (§3) Percentage inhibition of radioligand binding to human opioid receptors in vitro by test compounds (10 μM)
# human κ-opiate receptor = molecular target: T2, human κ-opiate receptor (Homo sapiens, UniProt P41145); assay: In vitro opiate receptor radioligand binding assay, κ; conditions: test compound 10 μM; read-out: Percentage inhibition of radioligand binding, κ-opiate receptor
# T2 construct: purchased MDS Pharma Services 260210
# Experimental: as §2, §3
# human μ-opiate receptor = molecular target: T3, human μ-opiate receptor (Homo sapiens, UniProt P35372); assay: In vitro opiate receptor radioligand binding assay, μ; conditions: test compound 10 μM; read-out: Percentage inhibition of radioligand binding, μ-opiate receptor
# T3 construct: purchased MDS Pharma Services 260410
# Experimental: as §2, §3
# ICR mice [3] = assay: Radiant heat-induced tail-flick response assay in mice; type: in vivo; conditions: IP, 10 mg/kg
# Experimental: For the tail-flick assay, groups of four male or female ICR mice weighing 22±2 g were used, and the test compound dissolved in 2% Tween 80/0.9% NaCl was administered intraperitoneally. The compound was administered intraperitoneally at 4, 8, 16 or 32 mg/kg, using 2% Tween 80—0.9% NaCl as the vehicle. Controls received vehicle alone. Morphine-HCl at a dose of 10 mg/kg was used as a positive control. At the pre-treatment point (0 minutes) a focused beam of radiant heat was applied to the middle dorsal surface of the tail to elicit a tail-flick response. […] The time required to elicit a pain response was recorded for each animal at 30 minutes following administration of the test compound. A prolongation of 50% or more ≧50% of the time required to elicit tail-flick response indicated possible analgesic activity.
# ICR mice [4] = assay: Phenylquinone-induced writhing model in mice (Example 16); type: in vivo; conditions: IP, 3 mg/kg, Table 1
# Experimental: as §1, with “KRS-5-150 was evaluated for possible analgesic activity in the phenylquinone-induced writhing model in mice (Siegmund et al, 1957). A” for “In each case, a”
# T1 sequence (P41143 whole entry): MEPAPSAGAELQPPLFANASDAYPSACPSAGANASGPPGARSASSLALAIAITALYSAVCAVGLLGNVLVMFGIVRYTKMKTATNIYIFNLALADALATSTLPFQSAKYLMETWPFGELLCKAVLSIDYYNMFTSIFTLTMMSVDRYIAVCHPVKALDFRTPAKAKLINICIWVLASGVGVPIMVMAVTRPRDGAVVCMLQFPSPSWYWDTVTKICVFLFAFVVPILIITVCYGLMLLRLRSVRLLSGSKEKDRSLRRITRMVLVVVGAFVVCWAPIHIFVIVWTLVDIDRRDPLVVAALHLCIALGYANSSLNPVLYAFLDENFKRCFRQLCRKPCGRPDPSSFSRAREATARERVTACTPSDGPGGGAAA
# T3 sequence (P35372 whole entry): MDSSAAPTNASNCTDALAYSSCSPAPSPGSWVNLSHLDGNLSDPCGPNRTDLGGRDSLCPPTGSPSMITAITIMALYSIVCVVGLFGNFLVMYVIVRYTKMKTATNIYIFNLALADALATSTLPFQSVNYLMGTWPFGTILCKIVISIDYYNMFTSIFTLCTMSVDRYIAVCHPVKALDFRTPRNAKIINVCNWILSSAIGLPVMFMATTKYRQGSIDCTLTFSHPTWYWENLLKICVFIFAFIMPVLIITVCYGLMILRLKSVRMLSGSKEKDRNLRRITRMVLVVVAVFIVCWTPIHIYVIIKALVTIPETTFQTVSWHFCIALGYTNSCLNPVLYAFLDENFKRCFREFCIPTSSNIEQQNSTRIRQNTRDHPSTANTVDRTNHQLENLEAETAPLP
# T2 sequence (P41145 whole entry): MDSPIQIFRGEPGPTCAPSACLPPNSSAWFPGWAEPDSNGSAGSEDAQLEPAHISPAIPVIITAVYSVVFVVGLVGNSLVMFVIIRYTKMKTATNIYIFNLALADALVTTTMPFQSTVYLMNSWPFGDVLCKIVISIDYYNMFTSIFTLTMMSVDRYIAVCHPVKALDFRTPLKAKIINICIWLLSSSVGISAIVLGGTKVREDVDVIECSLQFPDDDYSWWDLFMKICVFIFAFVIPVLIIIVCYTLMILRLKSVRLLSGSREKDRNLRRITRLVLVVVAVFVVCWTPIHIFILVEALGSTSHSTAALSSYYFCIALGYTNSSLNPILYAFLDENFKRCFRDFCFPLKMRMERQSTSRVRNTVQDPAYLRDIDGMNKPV
molecule,measurement,setting,value
"Oc1ccc2c3c1OC1C(O)C=CC4C(C2)N(/C(=N/c2ccccc2)Nc2ccccc2)CCC341 (stereo not drawn) [JFY-058, (5α,6α)-7,8-didehydro-4,5-epoxy-17-(N,N′-bisphenylcarboxamidino)morphinan, 3,6-diol]",% Inhibition,"ICR mice [1]; 1 mg/kg, Table 5",17%
same,Number of Writhings Average,"ICR mice [1]; 1 mg/kg, Table 5",15
same,Number of Writhings Individual,"ICR mice [1]; 1 mg/kg, Table 5",17 and 19 and 10
same,% Inhibition,"ICR mice [1]; 2 mg/kg, Table 5",33%
same,Number of Writhings Average,"ICR mice [1]; 2 mg/kg, Table 5",12
same,Number of Writhings Individual,"ICR mice [1]; 2 mg/kg, Table 5",15 and 13 and 8
same,% Inhibition,"ICR mice [1]; 4 mg/kg, Table 5",39%
same,Number of Writhings Average,"ICR mice [1]; 4 mg/kg, Table 5",11
same,Number of Writhings Individual,"ICR mice [1]; 4 mg/kg, Table 5",15 and 6 and 11
same,% Inhibition,"ICR mice [1]; 8 mg/kg, Table 5",39%
same,Number of Writhings Average,"ICR mice [1]; 8 mg/kg, Table 5",11
same,Number of Writhings Individual,"ICR mice [1]; 8 mg/kg, Table 5",3 and 15 and 14
same,% Inhibition,"ICR mice [1]; 16 mg/kg, Table 5",78%
same,Number of Writhings Average,"ICR mice [1]; 16 mg/kg, Table 5",4
same,Number of Writhings Individual,"ICR mice [1]; 16 mg/kg, Table 5",2 and 1 and 8
same,% Inhibition,"ICR mice [1]; 32 mg/kg, Table 5",100%
same,Number of Writhings Average,"ICR mice [1]; 32 mg/kg, Table 5",0
same,Number of Writhings Individual,"ICR mice [1]; 32 mg/kg, Table 5",0 (2×) and 1
same,% Inhibition,"ICR mice [1]; 64 mg/kg, Table 5",100%
same,Number of Writhings Average,"ICR mice [1]; 64 mg/kg, Table 5",0
same,Number of Writhings Individual,"ICR mice [1]; 64 mg/kg, Table 5",0
same,% Inhibition,"ICR mice [1]; 128 mg/kg, Table 5",100%
same,Number of Writhings Average,"ICR mice [1]; 128 mg/kg, Table 5",0
same,Number of Writhings Individual,"ICR mice [1]; 128 mg/kg, Table 5",0
same,analgesic activity (≧50% reduction in writhes),"ICR mice [1]; doses of 128, 64, 32 and 16 mg/kg",significant activity
same,Straub tail behaviour,"ICR mice [2]; IP, 40 minute observation period after administration, Example 18",None of the test animals exhibited Straub tail behaviour
"Cc1ccc(N=C(NCCCN2CC[C@]34c5c6ccc(O)c5O[C@H]3[C@@H](O)C=CC4[C@H]2C6)Nc2ccc(C)cc2)cc1 (stereo partly drawn) [KRS-6-26, (5α,6α)-7,8-didehydro-4,5-epoxy-17-(N,N′-bis-p-tolylcarboxamidino-3-aminopropyl)morphinan-3,6-diol]",inhibition at 10 µM,human δ-opiate receptor,95%
same,% Inhibition,"ICR mice [1]; 1 mg/kg, Table 4",50%
same,Number of Writhings Average,"ICR mice [1]; 1 mg/kg, Table 4",6
same,Number of Writhings Individual,"ICR mice [1]; 1 mg/kg, Table 4",0 and 13 and 4
same,% Inhibition,"ICR mice [1]; 2 mg/kg, Table 4",50%
same,Number of Writhings Average,"ICR mice [1]; 2 mg/kg, Table 4",6
same,Number of Writhings Individual,"ICR mice [1]; 2 mg/kg, Table 4",13 and 2 and 4
same,% Inhibition,"ICR mice [1]; 4 mg/kg, Table 4",75%
same,Number of Writhings Average,"ICR mice [1]; 4 mg/kg, Table 4",3
same,Number of Writhings Individual,"ICR mice [1]; 4 mg/kg, Table 4",0 and 7 and 2
same,% Inhibition,"ICR mice [1]; 8 mg/kg, Table 4",92%
same,Number of Writhings Average,"ICR mice [1]; 8 mg/kg, Table 4",1
same,Number of Writhings Individual,"ICR mice [1]; 8 mg/kg, Table 4",1 and 0 and 2
same,% Inhibition,"ICR mice [1]; 16 mg/kg, Table 4",100%
same,Number of Writhings Average,"ICR mice [1]; 16 mg/kg, Table 4",0
same,Number of Writhings Individual,"ICR mice [1]; 16 mg/kg, Table 4",0
same,% Inhibition,"ICR mice [1]; 32 mg/kg, Table 4",100%
same,Number of Writhings Average,"ICR mice [1]; 32 mg/kg, Table 4",0
same,Number of Writhings Individual,"ICR mice [1]; 32 mg/kg, Table 4",0 (2×) and 1
same,% Inhibition,"ICR mice [1]; 64 mg/kg, Table 4",100%
same,Number of Writhings Average,"ICR mice [1]; 64 mg/kg, Table 4",0
same,Number of Writhings Individual,"ICR mice [1]; 64 mg/kg, Table 4",0
same,% Inhibition,"ICR mice [1]; 128 mg/kg, Table 4",100%
same,Number of Writhings Average,"ICR mice [1]; 128 mg/kg, Table 4",0
same,Number of Writhings Individual,"ICR mice [1]; 128 mg/kg, Table 4",0
same,inhibition in writhing,ICR mice [1]; doses higher than 8 mg/kg,100%
same,deaths,ICR mice [1]; up to 128 mg/kg,no deaths
same,inhibition at 10 µM,human κ-opiate receptor,94%
same,inhibition at 10 µM,human μ-opiate receptor,99%
same,test animals exhibiting slight Straub tail behaviour,"ICR mice [2]; IP, 16 mg/kg, Example 18",one
same,test animals exhibiting slight Straub tail behaviour and piloerection,"ICR mice [2]; IP, 128, 64 and 32 mg/kg, Example 18",2 of 3
"CN1CC[C@]23c4c5ccc(O)c4O[C@H]2[C@@H](O)C=C[C@H]3[C@H]1C5 [Morphine.HCl, reference compound]",% Inhibition,"ICR mice [1]; 3 mg/kg, Table 4",100%
same,Number of Writhings Average,"ICR mice [1]; 3 mg/kg, Table 4",0
same,% Inhibition,"ICR mice [1]; 3 mg/kg, Table 5",100%
same,Number of Writhings Average,"ICR mice [1]; 3 mg/kg, Table 5",0
same,Number of Writhings Individual,"ICR mice [1]; 3 mg/kg, Table 4",1 and 0 (2×)
same,Number of Writhings Individual,"ICR mice [1]; 3 mg/kg, Table 5",0
same,% Inhibition (prolongation of tail-flick response time),ICR mice [3]; 30 minutes,(100) %
same,"Response Time (Seconds) 30 Mins., Average",ICR mice [3]; 30 minutes after administration,13.6 s
same,Response Time (Seconds) 30 Mins.,"ICR mice [3]; individual mice, 30 minutes after administration, cut-off 15 seconds",>15.0 Seconds (3×) and 9.4 Seconds
same,Response Time (Seconds) 0 Time,"ICR mice [3]; individual mice, pre-treatment (0 minutes)",6.3 Seconds (2×) and 6.2 Seconds and 6.5 Seconds
same,"Response Time (Seconds) 0 Time, Average",ICR mice [3]; pre-treatment (0 minutes),6.3 s
same,test animals exhibiting the Straub tail phenomenon,"ICR mice [2]; 3 mg/kg, Example 16",1 of 3
same,test animals with slight Straub tail phenomenon,"ICR mice [2]; 3 mg/kg, Example 18",2 of 3
same,% Inhibition,ICR mice [4],100%
same,No. of Writhings Individual,ICR mice [4]; individual mice,0
"(5α,6α)-7,8-didehydro-4,5-epoxy-17-(N,N′-bis-p-tolylcarboxamidino-3-aminopropyl)morphinan-3,6-diol [KRS-6-26]",analgesic activity (≧50% reduction in writhes),"ICR mice [1]; doses of 128, 64, 32, 16, 8, 4, 2 and 1 mg/kg",significant activity

# Source: patent publication US7199129B2, “Derivatives of morphine-like opioid compounds” (Monash University, priority 2001, dated 2007)
